Results on 14 compounds are retold here after patent publication US20260042764A1, “COMPOSITIONS AND METHODS FOR INHIBITION OF KRAS” (TheRas, Inc., priority 2022, published 2026).

Assay [1] has as its target T1, Avi-KRAS WT (2-169) GTP/RAF1 RBD-3xFLAG (51-131) (Homo sapiens, UniProt P01116).
T1 construct: Avi-KRAS WT (2-169)
Description: Raf1-KRAS WT-GTP disruption HTRF assay (Biological Example 3). It is filed as binding. The settings on record: KRAS WT, GTP-loaded. As to the method: (§1) Biological Example 3: Disrupting RAS-Effector Binding HTRF Assay
(§2) A protein:protein interaction (PPI) Homogeneous Time Resolved Fluorescence (HTRF) assay was used to determine the effectiveness of compounds in disrupting KRAS protein and effector (RAF1) binding.
(§3) The HTRF assay used the following reagents and proteins: (i) 50 nM Avi-KRAS G12D (2-169) GTP/RAF1 RBD-3xFLAG (51-131): (ii) 50 nM Avi-KRAS G12C (2-169) GTP/RAF1 RBD-3xFLAG (51-131): (iii) 50 nM Avi-KRAS G12V (2-169) GTP/RAF1 RBD-3xFLAG (51-131); (iv) 50 nM Avi-KRAS WT (2-169) GTP/RAF1 RBD-3xFLAG (51-131); and (v) 75 nM 3xFLAG-RAF1 RBD (51-131)-Avi. The assay buffer included: 50 mM Tris pH 7.5 (Invitrogen, 15567-027), 100 mM NaCl (Sigma, S5150-IL), 5 mM MgCl2 (Sigma, 63069), 0.1% BSA (Sigma, A7030), 0.01% Tween 20 (Sigma, P7949), 10% DMSO (Cell Signaling, 12611). The bead buffer included: 50 mM Tris pH 7.5 (Invitrogen, 15567-027), 0.01% Tween 20 (Sigma, P7949). An assay volume of 20 μL was used in a 384 well plate-low volume format. Compound titration: 30-0.005 μM, 3x dilution series.
(§4) The HTRF assay employed the following protocol:
(§5) Compounds were dispensed in assay plate (384-well, Grenier Bio-One #784075) using Echo (model 555) with dose response settings: 200 nL final volume, titration from 30 μM as a 10-point dilution series. Proteins and HTRF reagents were mixed and dispensed onto plates, 20 μL per well, and then incubated for 1 h at room temperature, with 700 rpm shaking.
(§6) Plates were analyzed on an Envision plate reader using the following setting: Excitation 320 nm, Bandwidth 75 nm; Emission 615 nm, Bandwidth 85 nm; Gain 100%; Flashes 100; Lag 60 μs. Data was reported as percentage of activity, with DMSO as 100%. Data was plotted and analyzed using Prism 8.
(§7) The biochemical Raf1-KRAS G12D/G12V/G12C/WT-GTP disruption assay IC50 of selected compounds described herein are shown in Table 12.

The subject of the next assay is GP2d cells (KRAS G12D). Put plainly: Cell-based pERK HTRF assay in GP2d cell (Biological Example 2). The settings on record: GP2d, GP2d (KRAS G12D) cells. In outline:
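HTRF read-out of pERK (excitation 320 nm, emission 615 nm) after lysates sat 4–24 h at room temperature with Eu cryptate and d2 antibodies.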

The next assay relates to SW620 cells (KRAS G12V). Description: Cell-based pERK HTRF assay in SW620 cell (Biological Example 4). The settings on record: Homo sapiens, SW-620, SW620 (KRAS G12V) cells. The method, boiled down:
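SW620 seeded in RPMI/10% FBS, next day dosed 4 h (top 1 μM, half-log, 9 pts, 0.25% DMSO). Lysed, pERK by d2/Eu cryptate HTRF, 4–24 h RT, 615 nm read.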

Assay [2] addresses T2, Avi-KRAS G12C (2-169) GTP/RAF1 RBD-3xFLAG (51-131) (Homo sapiens, UniProt P01116, G12C).
T2 construct: Avi-KRAS G12C (2-169)
Description: Raf1-KRAS G12C-GTP disruption HTRF assay (Biological Example 3). It is filed as binding. The following applies: KRAS G12C, GTP-loaded. As to the method:
as §1, §2, §3, §4, §5, §6, §7

Assay [3] has as its target T3, Avi-KRAS G12D (2-169) GTP/RAF1 RBD-3xFLAG (51-131) (Homo sapiens, UniProt P01116, G12D).
T3 construct: Avi-KRAS G12D (2-169)
Description: Raf1-KRAS G12D-GTP disruption HTRF assay (Biological Example 3). It counts as binding. The following applies: KRAS G12D, GTP-loaded. As to the method:
as §1, §2, §3, §4, §5, §6, §7

The target in assay [4] is T4, Avi-KRAS G12V (2-169) GTP/RAF1 RBD-3xFLAG (51-131) (Homo sapiens, UniProt P01116, G12V).
T4 construct: Avi-KRAS G12V (2-169)
T4 sequence (P01116 2-169 isoform P01116-2 G12V): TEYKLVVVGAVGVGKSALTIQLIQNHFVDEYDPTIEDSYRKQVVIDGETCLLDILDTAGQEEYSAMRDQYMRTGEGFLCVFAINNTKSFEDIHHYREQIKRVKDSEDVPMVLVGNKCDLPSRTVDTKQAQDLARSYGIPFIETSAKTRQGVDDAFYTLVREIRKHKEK
Put plainly: Raf1-KRAS G12V-GTP disruption HTRF assay (Biological Example 3). It is filed as binding. The settings on record: KRAS G12V, GTP-loaded. As to the method: as §1, §2, §3, §4, §5, §6, §7

What is called IC50 is the concentration that gives 50% inhibition. Read a low IC50 as greater potency.

T3 sequence (P01116 2-169 isoform P01116-2 G12D): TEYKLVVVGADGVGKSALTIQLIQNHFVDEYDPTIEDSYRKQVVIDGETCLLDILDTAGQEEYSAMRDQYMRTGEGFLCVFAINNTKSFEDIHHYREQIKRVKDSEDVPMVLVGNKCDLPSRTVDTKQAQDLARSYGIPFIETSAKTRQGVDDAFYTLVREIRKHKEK
T2 sequence (P01116 2-169 isoform P01116-2 G12C): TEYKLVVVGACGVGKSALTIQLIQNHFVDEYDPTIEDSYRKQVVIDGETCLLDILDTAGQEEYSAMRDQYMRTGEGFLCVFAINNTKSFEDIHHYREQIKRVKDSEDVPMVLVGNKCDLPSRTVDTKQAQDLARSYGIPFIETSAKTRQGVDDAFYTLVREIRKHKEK
T1 sequence (P01116 2-169 isoform P01116-2): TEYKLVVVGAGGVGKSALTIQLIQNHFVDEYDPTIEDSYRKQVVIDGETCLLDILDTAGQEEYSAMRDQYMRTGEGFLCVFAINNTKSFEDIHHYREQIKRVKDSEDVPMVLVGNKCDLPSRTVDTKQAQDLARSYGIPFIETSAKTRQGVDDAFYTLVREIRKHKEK

`CCN(c1nc(OC[C@@]23CCCN2C[C@H](F)C3)nc2c(F)c(-c3ccc(F)c4sc(N)c(C#N)c34)c(C(F)(F)F)cc12)[C@H]1C[C@H]2[C@H](C)OC(=O)N2C1` (atropisomer, axis not shown) [Compound 836]: the IC50 in assay [1] was 100 to 1000 nM; in the assay with GP2d cells (KRAS G12D), less than 100 nM; with SW620 cells (KRAS G12V), less than 100 nM; in assay [2], 100 to 1000 nM; in assay [3], 100 to 1000 nM; in assay [4], 100 to 1000 nM.

Consider `CCN(c1nc(OC[C@@]23CCCN2C[C@H](F)C3)nc2c(F)c(-c3ccc(F)c4sc(N)c(C#N)c34)c(C(F)(F)F)cc12)[C@H]1C[C@H](COC)N(C(=O)OC2COC2)C1` (atropisomer, axis not shown) [Compound 837], for which the IC50 is 100 to 1000 nM in assay [1]; less than 100 nM with GP2d cells (KRAS G12D); less than 100 nM in the assay on SW620 cells (KRAS G12V); 100 to 1000 nM in assay [2]; 100 to 1000 nM in assay [3]; 100 to 1000 nM in assay [4].

In the case of `CCN(c1nc(OC[C@@]23CCCN2C[C@H](F)C3)nc2c(F)c(-c3ccc(F)c4sc(N)c(C#N)c34)c(C(F)(F)F)cc12)[C@H]1C[C@H](COC)N(C(=O)N2CC(OC)C2)C1` (atropisomer, axis not shown) [Compound 839], the half-inhibitory concentration (IC50) was 100 to 1000 nM in assay [1]; less than 100 nM with GP2d cells (KRAS G12D); less than 100 nM in the assay with SW620 cells (KRAS G12V); 100 to 1000 nM in assay [2]; 100 to 1000 nM in assay [3]; 100 to 1000 nM in assay [4].

Take `CCN(c1nc(OC[C@@]23CCCN2C[C@H](F)C3)nc2c(F)c(-c3ccc(F)c4sc(N)c(C#N)c34)c(C(F)(F)F)cc12)[C@H]1C[C@H](COC)N(C(=O)[C@H]2CCO2)C1` (atropisomer, axis not shown) [Compound 840]: the IC50 in assay [1] was 100 to 1000 nM; in the assay on GP2d cells (KRAS G12D), less than 100 nM; in the assay on SW620 cells (KRAS G12V), less than 100 nM; in assay [2], 100 to 1000 nM; in assay [3], 100 to 1000 nM; in assay [4], 100 to 1000 nM.

In the case of `CCN(c1nc(OC[C@@]23CCCN2C[C@H](F)C3)nc2c(F)c(-c3ccc(F)c4sc(N)c(C#N)c34)c(C(F)(F)F)cc12)[C@H]1C[C@H](C)N(C(=O)[C@@H]2C[C@@H]2F)C1` (atropisomer, axis not shown) [Compound 841], the concentration for half-maximal inhibition (IC50) in assay [1] is 100 to 1000 nM; in the assay on GP2d cells (KRAS G12D) it was less than 100 nM; in the assay on SW620 cells (KRAS G12V), less than 100 nM; in assay [2] it was 100 to 1000 nM; in assay [3] it was 100 to 1000 nM; in assay [4], 100 to 1000 nM.

Regarding `CCN(c1nc(OC[C@@]23CCCN2C[C@H](F)C3)nc2c(F)c(-c3ccc(F)c4sc(N)c(C#N)c34)c(C(F)(F)F)cc12)[C@H]1CCN(C(=O)[C@H]2C[C@@H](F)C2)C1` (atropisomer, axis not shown) [Compound 842], the IC50 in assay [1] was 100 to 1000 nM; with GP2d cells (KRAS G12D), less than 100 nM; in the assay with SW620 cells (KRAS G12V) it was less than 100 nM; in assay [2], 100 to 1000 nM; in assay [3], 100 to 1000 nM; in assay [4] it was 100 to 1000 nM.

For the compound `N#Cc1c(N)sc2c(F)ccc(-c3c(C(F)(F)F)cc4c(N(CCF)[C@H]5CCN(C(=O)[C@@H]6CC6(F)F)C5)nc(OC[C@@]56CCCN5C[C@H](F)C6)nc4c3F)c12` (atropisomer, axis not shown) [Compound 843], the IC50 in assay [1] was 1000 to 10000 nM; with GP2d cells (KRAS G12D), less than 100 nM; in the assay on SW620 cells (KRAS G12V), less than 100 nM; in assay [2] it was 100 to 1000 nM; in assay [3] it was 100 to 1000 nM; in assay [4], 100 to 1000 nM.

`C/C=C/C(=O)N1C[C@@H](N(CC)c2nc(OC[C@@]34CCCN3C[C@H](F)C4)nc3c(F)c(-c4ccc(F)c5sc(N)c(C#N)c45)c(C(F)(F)F)cc23)C[C@@H]1COC` (atropisomer, axis not shown) [Compound 845]: the half-maximal inhibitory concentration (IC50) in assay [1] was 100 to 1000 nM; in the assay on GP2d cells (KRAS G12D), less than 100 nM; with SW620 cells (KRAS G12V), less than 100 nM; in assay [2], 100 to 1000 nM; in assay [3], 100 to 1000 nM; in assay [4], 100 to 1000 nM.

Consider `CCN(c1nc(OC[C@@]23CCCN2C[C@H](F)C3)nc2c(F)c(-c3ccc(F)c4sc(N)c(C#N)c34)c(C(F)(F)F)cc12)[C@H]1CCN(C(=O)[C@H]2C[C@H](F)C2)C1` (atropisomer, axis not shown) [Compound 846], for which the concentration for half-maximal inhibition (IC50) in assay [1] was 100 to 1000 nM; with GP2d cells (KRAS G12D), less than 100 nM; in the assay on SW620 cells (KRAS G12V), less than 100 nM; in assay [2], 100 to 1000 nM; in assay [3], 100 to 1000 nM; in assay [4], 100 to 1000 nM.

With `CCN(c1nc(OC[C@@]23CCCN2C[C@H](F)C3)nc2c(F)c(-c3ccc(F)c4sc(N)c(C#N)c34)c(C(F)(F)F)cc12)[C@H]1C[C@H](COC)N(C(=O)[C@H]2C[C@H]2F)C1` (atropisomer, axis not shown) [Compound 847], the 50% inhibitory concentration (IC50) in assay [1] is 100 to 1000 nM; in the assay on GP2d cells (KRAS G12D), less than 100 nM; with SW620 cells (KRAS G12V), less than 100 nM; in assay [2], 100 to 1000 nM; in assay [3], 100 to 1000 nM; in assay [4], 100 to 1000 nM.

As for `CCN(c1nc(OC[C@@]23CCCN2C[C@H](F)C3)nc2c(F)c(-c3ccc(F)c4sc(N)c(C#N)c34)c(C(F)(F)F)cc12)[C@H]1C[C@H](COC)N(C(=O)[C@@H]2C[C@H]2F)C1` (atropisomer, axis not shown) [Compound 848], the IC50 in assay [1] was 100 to 1000 nM; in the assay on GP2d cells (KRAS G12D), less than 100 nM; in the assay with SW620 cells (KRAS G12V) it was less than 100 nM; in assay [2] it was 100 to 1000 nM; in assay [3] it was 100 to 1000 nM; in assay [4], 100 to 1000 nM.

`CCN(c1nc(OC[C@@]23CCCN2C[C@H](F)C3)nc2c(F)c(-c3ccc(F)c4sc(N)c(C#N)c34)c(C(F)(F)F)cc12)[C@H]1CCN(C(=O)OCC(F)(F)F)C1` (atropisomer, axis not shown) [Compound 849]: the concentration for half-maximal inhibition (IC50) in assay [1] was 100 to 1000 nM; in the assay with GP2d cells (KRAS G12D), less than 100 nM; with SW620 cells (KRAS G12V), less than 100 nM; in assay [2] it was 100 to 1000 nM; in assay [3], 100 to 1000 nM; in assay [4], 100 to 1000 nM.

On to `CCN(c1nc(OC[C@@]23CCCN2C[C@H](F)C3)nc2c(F)c(-c3ccc(F)c4sc(N)c(C#N)c34)c(C(F)(F)F)cc12)[C@H]1CCN(C(=O)O[C@H](C)C(F)(F)F)C1` (atropisomer, axis not shown) [Compound 850], for which the IC50 in assay [1] is 1000 to 10000 nM; in the assay with GP2d cells (KRAS G12D), less than 100 nM; with SW620 cells (KRAS G12V) it was less than 100 nM; in assay [2], 100 to 1000 nM; in assay [3], 100 to 1000 nM; in assay [4], 1000 to 10000 nM.

For the compound `CCN(c1nc(OC[C@@]23CCCN2C[C@H](F)C3)nc2c(F)c(-c3ccc(F)c4sc(N)c(C#N)c34)c(C(F)(F)F)cc12)[C@H]1CCN(C(=O)N2CC3(CCO3)C2)C1` (atropisomer, axis not shown) [Compound 851], the half-maximal inhibitory concentration (IC50) in assay [1] was 100 to 1000 nM; with GP2d cells (KRAS G12D), less than 100 nM; in the assay with SW620 cells (KRAS G12V), less than 100 nM; in assay [2], 100 to 1000 nM; in assay [3], 100 to 1000 nM; in assay [4] it was 100 to 1000 nM.
